{"source": "ChEMBL document CHEMBL5465560", "about": "“Selectivity Literature for EUbOPEN Chemogenomic Library” (2024)", "key": {"[1]": {"target": "T1, Mitogen-activated protein kinase kinase kinase 19 (Homo sapiens) (UniProt Q56UN5)", "T1 sequence (whole entry)": "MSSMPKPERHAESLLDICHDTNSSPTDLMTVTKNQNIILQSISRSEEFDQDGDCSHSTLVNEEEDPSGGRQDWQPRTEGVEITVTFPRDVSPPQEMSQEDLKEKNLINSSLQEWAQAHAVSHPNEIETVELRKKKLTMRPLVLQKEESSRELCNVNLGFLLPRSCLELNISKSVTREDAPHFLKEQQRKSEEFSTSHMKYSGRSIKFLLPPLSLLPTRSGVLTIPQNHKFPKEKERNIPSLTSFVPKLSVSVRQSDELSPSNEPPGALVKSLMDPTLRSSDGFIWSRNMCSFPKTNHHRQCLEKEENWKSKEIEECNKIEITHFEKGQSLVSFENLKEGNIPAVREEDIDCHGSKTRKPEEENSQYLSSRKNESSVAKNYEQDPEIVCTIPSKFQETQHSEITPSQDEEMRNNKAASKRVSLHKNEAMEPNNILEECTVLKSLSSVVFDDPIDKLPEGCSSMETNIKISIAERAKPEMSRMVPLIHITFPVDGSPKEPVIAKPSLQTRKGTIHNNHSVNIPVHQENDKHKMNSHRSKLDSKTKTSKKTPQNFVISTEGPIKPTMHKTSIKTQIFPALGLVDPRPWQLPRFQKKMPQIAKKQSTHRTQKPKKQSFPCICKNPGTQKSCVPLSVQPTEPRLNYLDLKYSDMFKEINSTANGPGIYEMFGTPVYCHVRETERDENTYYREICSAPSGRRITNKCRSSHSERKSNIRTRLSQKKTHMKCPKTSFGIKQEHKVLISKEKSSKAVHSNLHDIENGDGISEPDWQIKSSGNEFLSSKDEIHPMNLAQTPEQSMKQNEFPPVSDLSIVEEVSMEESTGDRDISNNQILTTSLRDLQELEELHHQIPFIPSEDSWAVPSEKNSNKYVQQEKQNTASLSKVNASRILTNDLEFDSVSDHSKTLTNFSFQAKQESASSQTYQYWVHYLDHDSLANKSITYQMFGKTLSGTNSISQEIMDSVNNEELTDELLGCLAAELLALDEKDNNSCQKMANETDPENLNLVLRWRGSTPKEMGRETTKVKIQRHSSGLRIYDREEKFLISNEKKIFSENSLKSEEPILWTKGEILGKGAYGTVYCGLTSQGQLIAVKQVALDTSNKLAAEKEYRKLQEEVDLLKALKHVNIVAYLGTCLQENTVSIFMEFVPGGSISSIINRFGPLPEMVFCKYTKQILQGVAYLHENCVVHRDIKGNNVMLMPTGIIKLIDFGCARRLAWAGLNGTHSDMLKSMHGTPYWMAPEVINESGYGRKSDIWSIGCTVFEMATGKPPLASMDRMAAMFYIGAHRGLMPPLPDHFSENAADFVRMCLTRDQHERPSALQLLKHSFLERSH", "test": "Selectivity interaction (KinomeScan (DiscoverX)) EUB0000092b MAP3K19", "details": "at 10 µM"}, "[2]": {"target": "T2, NUAK family SNF1-like kinase 1 (Homo sapiens) (UniProt O60285)", "T2 sequence (whole entry)": "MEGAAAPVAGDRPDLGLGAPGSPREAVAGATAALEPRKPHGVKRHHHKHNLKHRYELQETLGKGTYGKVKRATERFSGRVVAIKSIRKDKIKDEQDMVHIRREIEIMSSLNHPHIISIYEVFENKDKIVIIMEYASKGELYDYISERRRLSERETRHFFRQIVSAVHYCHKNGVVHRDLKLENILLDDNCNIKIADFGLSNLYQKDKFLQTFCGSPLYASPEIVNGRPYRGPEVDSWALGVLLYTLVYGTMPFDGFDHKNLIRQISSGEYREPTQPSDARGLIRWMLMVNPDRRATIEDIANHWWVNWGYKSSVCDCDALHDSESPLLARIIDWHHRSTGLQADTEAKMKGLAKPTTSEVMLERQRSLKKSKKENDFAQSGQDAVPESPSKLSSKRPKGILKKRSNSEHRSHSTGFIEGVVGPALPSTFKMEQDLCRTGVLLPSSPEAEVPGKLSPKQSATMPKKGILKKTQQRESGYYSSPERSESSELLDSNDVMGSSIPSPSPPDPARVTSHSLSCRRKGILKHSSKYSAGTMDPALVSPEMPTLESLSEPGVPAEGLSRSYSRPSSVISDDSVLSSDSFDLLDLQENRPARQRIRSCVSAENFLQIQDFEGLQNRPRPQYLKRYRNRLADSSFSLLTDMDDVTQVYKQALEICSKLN", "test": "Selectivity interaction (KinomeScan (DiscoverX)) EUB0000045b NUAK1"}, "[3]": {"target": "T3, Interleukin-1 receptor-associated kinase 3 (Homo sapiens) (UniProt Q9Y616)", "T3 sequence (whole entry)": "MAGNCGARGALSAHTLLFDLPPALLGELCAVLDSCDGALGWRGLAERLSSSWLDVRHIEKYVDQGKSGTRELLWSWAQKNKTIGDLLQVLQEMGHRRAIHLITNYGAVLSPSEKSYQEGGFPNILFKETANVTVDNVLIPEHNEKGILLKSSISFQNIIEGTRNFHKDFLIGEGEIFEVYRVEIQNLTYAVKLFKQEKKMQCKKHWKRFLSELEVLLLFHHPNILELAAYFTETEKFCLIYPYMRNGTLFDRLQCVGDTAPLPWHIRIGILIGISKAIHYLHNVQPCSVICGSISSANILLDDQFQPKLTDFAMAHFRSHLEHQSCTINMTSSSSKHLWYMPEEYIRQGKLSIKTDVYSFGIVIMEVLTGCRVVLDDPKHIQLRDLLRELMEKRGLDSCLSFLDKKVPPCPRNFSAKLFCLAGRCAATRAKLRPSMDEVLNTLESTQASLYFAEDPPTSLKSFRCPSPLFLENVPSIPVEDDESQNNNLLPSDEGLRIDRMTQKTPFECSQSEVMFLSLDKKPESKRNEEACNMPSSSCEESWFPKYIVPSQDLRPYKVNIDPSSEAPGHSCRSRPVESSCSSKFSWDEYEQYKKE", "test": "Selectivity interaction (KinomeScan (DiscoverX)) EUB0000618a IRAK3", "details": "at 10 µM"}}}
{"molecule": "CCC(=O)N1CCN(c2ccc(-n3c(=O)ccc4cnc5ccc(-c6cnc7ccccc7c6)cc5c43)cc2C(F)(F)F)CC1", "values": [{"measurement": "% of control", "setting": "[1]", "result": 38, "unit": "%"}]}
{"molecule": "C=CC(=O)Nc1cc(-n2c(=O)ccc3cnc4ccc(-c5ccc(NS(C)(=O)=O)cc5)cc4c32)ccc1C", "values": [{"measurement": "% of control", "setting": "[2]; at 1 µM", "result": 100, "unit": "%"}, {"measurement": "% of control", "setting": "[2]; at 10 µM", "result": 76, "unit": "%"}]}
{"molecule": "O[C@H]1CC[C@H](Nc2ncc3nc(Nc4c(F)cc(F)cc4F)n([C@H]4CCOC4)c3n2)CC1", "values": [{"measurement": "% of control", "setting": "[3]", "result": 100, "unit": "%"}]}
